This passage reports GI50 and TGI results from PubChem BioAssay (NCI).

Several values for one entry are separate records, joined by “and”; a condition that tells them apart may be missing. Identical values can stand only once.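 48-hour exposure; five concentrations; linearly interpolated endpoints. GI50 = concentration required for 50% inhibition of growth. Definition used: TGI = concentration required for complete inhibition of growth.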

Test systems include HT29 colon; KM12 colon; MALME-3M melanoma; 786-0 renal; NCI-H226 lung; IGROV1 ovarian; HCT-15 colon; CAKI-1 renal; HS 578T breast; SF-539 CNS.
Common to all, as to assay: inhibition of tumour cell growth, NCI panel, 48 h

For the compound `CCOc1cc2ncc(C#N)c(Nc3ccc(OCc4cccc(F)c4)c(Cl)c3)c2cc1NC(=O)CC1CCSS1` (centres undefined), the GI50 with HT29 colon is 907 nM; in the experiment on KM12 colon, 490 nM; in the experiment with MALME-3M melanoma, over 22.3 µM; in the experiment on 786-0 renal, over 13.8 µM; in the experiment on NCI-H226 lung it was 11 µM; in the experiment on IGROV1 ovarian it was 0.578 µM. Further, the GI50 with HCT-15 colon was 2760 nM; in the experiment with CAKI-1 renal, 1770 nM; in the experiment on HS 578T breast, 4.12 µM; in the experiment on SF-539 CNS, 2280 nM. Besides, the TGI in the experiment with HT29 colon was over 25 µM; with KM12 colon it was 1.12 µM; with MALME-3M melanoma, over 25 µM; in the experiment with 786-0 renal, over 25 µM; in the experiment on NCI-H226 lung, over 25 µM; in the experiment with IGROV1 ovarian it was over 6.27 µM. Further, the TGI in the experiment with HCT-15 colon, in the experiment with CAKI-1 renal, in the experiment on HS 578T breast and in the experiment with SF-539 CNS was over 25 µM each time.

Take `CC(=O)n1c(COS(C)(=O)=O)nc2ccccc21`: the TGI in the experiment with HT29 colon, in the experiment with KM12 colon, in the experiment on MALME-3M melanoma, with 786-0 renal, in the experiment with NCI-H226 lung and with IGROV1 ovarian was over 100 µM in each case. The TGI in the experiment with HCT-15 colon, in the experiment on CAKI-1 renal, in the experiment on HS 578T breast and in the experiment with SF-539 CNS was over 100 µM in each case.

As to `O=[N+]([O-])C1C(c2ccccc2)C12c1ccccc1-c1ccccc12` (centres undefined), the GI50 in the experiment with HT29 colon is 349 nM; with KM12 colon, 931 nM; in the experiment on MALME-3M melanoma it was 15 µM; in the experiment with 786-0 renal, 0.59 µM; with NCI-H226 lung it was 2.05 µM; in the experiment on IGROV1 ovarian, 3.41 µM. For the same compound, the GI50 in the experiment on HCT-15 colon was 546 nM; with CAKI-1 renal it was 1030 nM; with HS 578T breast, 2.28 µM; in the experiment with SF-539 CNS, 1310 nM. Also, the TGI in the experiment with HT29 colon is 15.5 µM; in the experiment on KM12 colon it was 16.6 µM; in the experiment on MALME-3M melanoma it was 37.8 µM; with 786-0 renal it was 14.2 µM; in the experiment with NCI-H226 lung, 14.5 µM; in the experiment on IGROV1 ovarian, 30.1 µM. In addition, the TGI is 30.4 µM in the experiment with HCT-15 colon, over 65.7 µM in the experiment with CAKI-1 renal, over 100 µM in the experiment on HS 578T breast and 9 µM in the experiment with SF-539 CNS.

In the case of `COc1ccc(C(=O)/C(Br)=C/C(=O)O)cc1`, the GI50 was 59400 nM in the experiment on HT29 colon; 18.8 µM in the experiment on MALME-3M melanoma; 10.8 µM and 30.7 µM with 786-0 renal; 39.1 µM in the experiment on NCI-H226 lung; 121 µM and 144 µM in the experiment on IGROV1 ovarian; 10600 nM in the experiment with HCT-15 colon. Also, the GI50 in the experiment on HS 578T breast was 43.1 µM and 30.9 µM; with SF-539 CNS, 9180 nM and 27300 nM. Further, the TGI with HT29 colon was 658 µM and 491 µM; in the experiment with KM12 colon, 48.8 µM and 48 µM; with MALME-3M melanoma, 47.3 µM and 45.2 µM; in the experiment on 786-0 renal it was 56.1 µM and 99.1 µM; in the experiment with NCI-H226 lung it was 148 µM and 145 µM; in the experiment with IGROV1 ovarian, 321 µM and 461 µM. Besides, the TGI was 101 µM and 94.4 µM in the experiment on HCT-15 colon; 148 µM and 154 µM in the experiment with CAKI-1 renal; 649 µM and 399 µM in the experiment with HS 578T breast; 90.7 µM and 87.3 µM in the experiment with SF-539 CNS.

As for `CNC(=O)c1cc(OC2CCC(NC(=O)Nc3ccc(Cl)c(C(F)(F)F)c3)CC2)ccn1` (centres undefined), the GI50 was 4250 nM in the experiment with HT29 colon; 713 nM in the experiment on KM12 colon; 9.64 µM with MALME-3M melanoma; 8.34 µM in the experiment with 786-0 renal; 9.99 µM with NCI-H226 lung; 13.4 µM with IGROV1 ovarian. Besides, the GI50 in the experiment with HCT-15 colon was 6170 nM; in the experiment with CAKI-1 renal it was 6750 nM; in the experiment on HS 578T breast, 11.6 µM; with SF-539 CNS, 12000 nM. The TGI with HT29 colon worked out at 16.2 µM; in the experiment with KM12 colon it was 14 µM; in the experiment with MALME-3M melanoma it was 34.3 µM; in the experiment on 786-0 renal it was 25 µM; with NCI-H226 lung, 25.6 µM; in the experiment with IGROV1 ovarian it was 39.6 µM. Besides, the TGI in the experiment on HCT-15 colon is 23.6 µM; with CAKI-1 renal, 31.9 µM; in the experiment on HS 578T breast, 63.1 µM; with SF-539 CNS, 29.6 µM.

In the case of `CN1CC[C@@H](c2c(O)cc(O)c3c(=O)cc(-c4ccccc4Cl)oc23)[C@@H](O)C1`, the GI50 in the experiment on HT29 colon is 178 nM; in the experiment on KM12 colon, 51.1 nM; in the experiment with MALME-3M melanoma, 0.166 µM and 0.144 µM; in the experiment with 786-0 renal, 0.108 µM; in the experiment on NCI-H226 lung, 0.0522 µM; in the experiment with HCT-15 colon, 47.6 nM. For the same compound, the GI50 in the experiment on HS 578T breast was 0.0675 µM and 0.11 µM and 0.0213 µM; in the experiment with SF-539 CNS, 68.8 nM and 19.7 nM. Further, the TGI was 24.8 µM with HT29 colon; 26.6 µM in the experiment on KM12 colon; 0.439 µM and 0.465 µM with MALME-3M melanoma; 17.9 µM in the experiment with 786-0 renal; 0.301 µM and 0.821 µM in the experiment on NCI-H226 lung; over 100 µM in the experiment with IGROV1 ovarian. The TGI is over 39.6 µM in the experiment on CAKI-1 renal; 0.141 µM and 0.057 µM and 0.148 µM with SF-539 CNS.

In the case of `COc1cc([C@H]2c3cc4c(cc3O[C@@]3(O)COC(=O)[C@@H]23)OCO4)cc(OC)c1OC`, the TGI with HT29 colon, in the experiment with KM12 colon, with MALME-3M melanoma, with 786-0 renal, in the experiment with NCI-H226 lung and in the experiment on IGROV1 ovarian was over 100 µM throughout. Moreover, the TGI with HCT-15 colon, with CAKI-1 renal, with HS 578T breast and in the experiment on SF-539 CNS was over 100 µM in each case.
